In PubChem BioAssay (NCI) one finds GI50 and TGI data, which are given here for seven compounds.

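1) Cells in 96-well plates. 2) Compound, 48 h, 5 concentrations. 3) Linear interpolation between surrounding doses. 4) Unreached endpoint = highest concentration. The concentration for 50% growth inhibition is given as GI50. TGI marks complete inhibition of growth.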 Bounds are passed on as bounds.

Holding throughout (experiment): NCI anticancer screen, dose series, 48 h
The subject of assay [1] is COLO 205 colon.
In assay [2] the test system is HCC-2998 colon.
The subject of assay [3] is K-562 leukemia.
For assay [4], the system named is NCI-H522 lung.
The test system of assay [5] is SF-539 CNS.
In assay [6] the test system is SK-MEL-2 melanoma.
Assay [7] has as its system SN12C renal.
The subject of assay [8] is SNB-19 CNS.
Assay [9] has as its system SNB-75 CNS.
The subject of assay [10] is T-47D breast.

With `COc1cc(C(=O)NC2CCN(C)CC2)ccc1Nc1ncc2c(n1)N(C1CCCC1)CC(F)(F)C(=O)N2C`, the GI50 in [1] was under 0.01 µM; in assay [2], under 0.0166 µM; in [3] it was under 0.01 µM; in assay [4], 0.0129 µM; in assay [5], 0.0215 µM; in assay [6] it was 2.23 µM. Further, the GI50 in assay [7] was 0.124 µM; in [8], 0.0375 µM; in assay [9] it was 0.0198 µM; in assay [10], 0.177 µM. Also, the TGI was 0.064 µM in assay [1]; 2.2 µM in [2]; 4.86 µM in assay [3]; 2.92 µM in assay [4]; 5.13 µM in assay [5]; 6.56 µM in assay [6]. Also, the TGI stood at 15 µM in assay [7], 16.8 µM in [8], 16.1 µM in [9] and 12.6 µM in assay [10].
Regarding `Fc1ccc(CNc2c3ccccc3nc3ccccc23)cc1`, the GI50 in [1] was 1.66 µM; in assay [2], 1.95 µM; in assay [3], 2.49 µM; in [4] it was 1.66 µM; in [5], 2.22 µM; in [6], 2.39 µM. The GI50 in [7] was 2.64 µM; in assay [8], 3.66 µM; in assay [9], 2.01 µM; in assay [10], 2.53 µM. Moreover, the TGI in [1] turned out to be 3.7 µM; in assay [2], 4.62 µM; in assay [3], 16.2 µM; in assay [4] it was 4.24 µM; in assay [5] it was 5.7 µM; in assay [6], 6.01 µM. Besides, the TGI in [7] stood at 10.5 µM; in assay [8], 15.4 µM; in assay [9], 10.8 µM; in assay [10], 10 µM.
In the case of `CN(CCCCCl)P(=O)(OCc1ccc([N+](=O)[O-])o1)C(F)(F)c1ccc(CC(=O)N[C@@H](CC(=O)O)C(=O)N[C@@H](Cc2ccc(C(F)(F)P(=O)(OCc3ccc([N+](=O)[O-])o3)N(C)CCCCCl)cc2)C(N)=O)cc1` (stereo not given in full), the GI50 in assay [1] was 41 µM; in assay [2], 24.5 µM; in assay [3], 22.4 µM; in assay [4], 35.7 µM; in assay [5] it was 31 µM; in [6], 21.6 µM. Also, the GI50 is over 100 µM in assay [7], 54.9 µM in assay [8], 34.5 µM in assay [9] and 39.1 µM in assay [10]. Also, the TGI was over 100 µM in assay [1]; 56.7 µM in assay [2]; 55.7 µM in [3]; over 100 µM in [4]; 99.8 µM in [5]; 57.4 µM in assay [6]. Further, the TGI in assay [7] is over 100 µM; in [8] it was over 100 µM; in assay [9], 91.9 µM; in [10], over 100 µM.
Regarding `COc1ccccc1CNCCCN1C(=O)c2ccc3c4c(ccc(c24)C1=O)C(=O)N(CCCNCCCCNCCCCN)C3=O`, the GI50 is 0.351 µM in assay [1]; 1.8 µM in assay [2]; 1.02 µM in assay [3]; 1.62 µM in [4]; 2.15 µM in assay [5]; 1.91 µM in [6]. Also, the GI50 was 1.99 µM in assay [7], 2.72 µM in assay [8], 1.3 µM in [9] and 0.782 µM in assay [10]. For the same compound, the TGI is 1.31 µM in assay [1]; 6.39 µM in assay [2]; over 36.9 µM in [3]; 6.07 µM in assay [4]; 5.5 µM in assay [5]; 4.87 µM in assay [6]. In addition, the TGI in [7] is 5.9 µM; in [8] it was 10.1 µM; in assay [9] it was 3.68 µM; in assay [10], 3.14 µM.
For the compound `Nc1ncnc2c1c(-c1cccc(OCc3ccccc3)c1)cn2C1CC(CN2CCCC2)C1` (stereo not given), the GI50 in assay [1] was 0.331 µM; in assay [2], 2 µM; in assay [3] it was 1.86 µM; in assay [4], 1.95 µM; in [5] it was 1.6 µM; in assay [6], 1.66 µM. Moreover, the GI50 was 3.09 µM in [7], 4.19 µM in [8], 1.24 µM in assay [9] and 2.04 µM in assay [10]. In addition, the TGI in [1] amounted to 1.47 µM; in [2] it was 6.13 µM; in assay [3] it was 6.54 µM; in assay [4], 3.73 µM; in assay [5] it was 3.02 µM; in assay [6], 3.35 µM. In addition, the TGI in [7] is 14.5 µM; in assay [8] it was 16.9 µM; in [9], 3.19 µM; in assay [10] it was 6.59 µM.
Regarding `O=C(/C=C/c1ccccn1)c1ccccc1O`, the GI50 in assay [1] was 1.69 µM; in assay [2], 1.7 µM; in [3] it was 2.09 µM; in assay [4], 1.56 µM; in assay [5] it was 2.05 µM; in assay [6] it was 2.31 µM. The GI50 in [7] is 2.8 µM; in assay [8] it was 3.21 µM; in [9], 1.79 µM; in assay [10], 2.45 µM. The TGI is 3.3 µM in assay [1]; 3.07 µM in [2]; over 100 µM in assay [3]; 3.08 µM in assay [4]; 4.2 µM in assay [5]; 4.88 µM in [6]. For the same compound, the TGI came out at 9.36 µM in [7], 13.4 µM in assay [8], 4.24 µM in assay [9] and 8.36 µM in [10].
As to `O=C1Nc2ccccc2C1(c1ccc(O)c(F)c1)c1ccc(O)c(F)c1`, the GI50 was 0.297 µM in assay [1]; 4.72 µM in assay [2]; 11.6 µM in assay [3]; 11.5 µM in assay [4]; 12.6 µM in assay [5]; 11.4 µM in assay [6]. The GI50 in assay [7] is 0.353 µM; in [8] it was 19.1 µM; in assay [9] it was 0.661 µM; in [10], 0.226 µM. The TGI was 1.98 µM in [1]; 25.3 µM in assay [2]; over 100 µM in assay [3]; 31.3 µM in assay [4]; 36.8 µM in assay [5]; 31.5 µM in assay [6]. Further, the TGI was determined as 12.2 µM in assay [7], 69 µM in assay [8], 36.5 µM in [9] and 0.622 µM in [10].
